One may read the GI50 as the concentration at which growth is held to half of that of the control. For orientation: IC50 means the concentration at which inhibition is half-maximal.

One experiment concerns the target T1, HDAC 8 (Homo sapiens, UniProt Q9BY41).
T1 sequence (Q9BY41 1-377): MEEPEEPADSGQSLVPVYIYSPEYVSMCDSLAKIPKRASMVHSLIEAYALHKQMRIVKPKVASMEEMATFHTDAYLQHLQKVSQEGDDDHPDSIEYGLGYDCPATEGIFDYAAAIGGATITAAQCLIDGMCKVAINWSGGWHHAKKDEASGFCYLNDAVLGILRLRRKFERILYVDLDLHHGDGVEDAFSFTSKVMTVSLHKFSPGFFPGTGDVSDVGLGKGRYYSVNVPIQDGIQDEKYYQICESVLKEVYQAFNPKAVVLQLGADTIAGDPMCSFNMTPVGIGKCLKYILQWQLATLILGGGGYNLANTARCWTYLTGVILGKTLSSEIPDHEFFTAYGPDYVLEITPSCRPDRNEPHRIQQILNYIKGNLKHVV
Description: HDAC enzyme fluorescence assay, HDAC 8. The class given is biochemical. Also noted: Inhibitory activity (%) HDAC 8: concentration or dose not given beside the values. Particulars: for Inhibitory activity (%) HDAC 8: (HDAC inhibitory activity of example compound/HDAC inhibitory activity of SAHA) × 100. The protocol: Particularly, HDAC enzyme analysis was performed based on a uniform fluorescence emission assay. First, the compounds of examples of the present invention or comparative example 1 were diluted at different concentrations, which were treated to the analysis buffer containing 25 mM HEPES (pH 8.0), 137 mM NaCl, 1 mM MgCl2 and 2.7 mM KCL, followed by culture of the recombinant HDAC enzyme. 10 minutes later, Boc-Lys(acetyl)-AMC, the fluorescence inducing substrate, was added thereto, followed by further culture at 37° C. At this time, the concentration of the fluorescence inducing substrate and the culture time were adjusted according to the isotypes of the HDAC enzyme. The reaction was terminated by treating trypsin at room temperature for 20 minutes. The fluorescence intensity was measured using a fluorescence analyzer at an excitation wavelength of 380 nm and an emission wavelength of 460 nm, respectively. The inhibition rate was calculated from the measured fluorescence intensity of each well with comparing to that of the control well. IC50 of the compound was calculated by analyzing the dose-reaction inhibition curve.
The HDAC 8 inhibitory activity was presented as percentage of relative activity by the inhibitory activity of SAHA (Vorinostat) used as a reference compound.

For experiment [1], the system named is lung cancer cell line (NCl-H23). As to the kind of experiment: Cancer proliferation inhibitory activity (SRB, GI50), NCI-H23. The class given is cell-based. Particulars: Homo sapiens, 48 hours. The source says:
(§1) Particularly, the cancer proliferation inhibitory activity of the compounds of comparative examples (Ajoene and the compounds isosteric to Ajoene wherein R1 is allyl or benzyl) and the compounds of examples of the present invention (the compounds not isosteric to Ajoene wherein R^1 is phenyl) was investigated in human cancer cell lines (renal cancer cell line (ACHN), breast cancer cell line (MDA-MB-231), colorectal cancer cell line (HCT-15), prostate cancer cell line (PC-3), gastric cancer cell line (NUGC-3) and lung cancer cell line (NCl-H23)).
(§2) At this time, the cancer cell lines (renal cancer cell line (ACHN), breast cancer cell line (MDA-MB-231), colorectal cancer cell line (HCT-15), prostate cancer cell line (PC-3), gastric cancer cell line (NUGC-3) and lung cancer cell line (NCl-H23)) above were purchased from American Type Culture Collection (Manassas, Va., USA). Cells were cultured in RPMI 1640 supplemented with 10% fetal bovine serum, which were maintained 37° C. under 5% CO2 wet atmosphere. The cells were distributed in a 96-well plate, which was not treated (treated only with 0.1% DMSO) or treated with the compounds of examples of the present (0.1 μM to 10 μM). 48 hours later, the cells were fixed in 50% trichloroacetic acid, followed by staining with 1% acetic acid containing 0.4% sulphorodamine B dissolved therein. The non-conjugated dye was removed by washing with 1% acetic acid, and the protein conjugated dye was extracted with 10 mM Tris base (pH 10.5). Then, OD540 was measured with VersaMax microplate reader (Molecular devices, Sunnyvale, Calif., USA). GI50 was calculated by using GraphPad Prism software (GraphPad Software, Inc., San Diego, Calif., USA).
(§3) Based on the results obtained in experimental example 1-1 above, the derivatives wherein R^1 is phenyl were additionally synthesized. The cancer proliferation inhibitory activity of the derivatives was evaluated by the same manner as described in experimental example 1-1.

Experiment [2] deals with colorectal cancer cell line (HCT-15). As to the kind of experiment: Cancer proliferation inhibitory activity (SRB, GI50), HCT-15. The class given is cell-based. Particulars: Homo sapiens, 48 hours.
Source text: as §1, §2, §3

Experiment [3] has as its system gastric cancer cell line (NUGC-3). As to the kind of experiment: Cancer proliferation inhibitory activity (SRB, GI50), NUGC-3. The class given is cell-based. Particulars: Homo sapiens, 48 hours.
Source text: as §1, §2, §3

The subject of experiment [4] is breast cancer cell line (MDA-MB-231). Description: Cancer proliferation inhibitory activity (SRB, GI50), MDA-MB-231. Particulars: Homo sapiens, 48 hours. The class given is cell-based.
Source text: as §1, §2, §3

In experiment [5] the test system is prostate cancer cell line (PC-3). As to the kind of experiment: Cancer proliferation inhibitory activity (SRB, GI50), PC-3. Type of experiment: cell-based. Particulars: Homo sapiens, 48 hours.
Source text: as §1, §2, §3

The subject of experiment [6] is renal cancer cell line (ACHN). As to the kind of experiment: Cancer proliferation inhibitory activity (SRB, GI50), ACHN. The class given is cell-based. Particulars: Homo sapiens, 48 hours.
Source text: as §1, §2, §3

As for `COc1cccc([S+]([O-])C/C=C/SSCc2ccc(F)cc2)c1` (stereo not shown) [Example 21, (E)-1-(4-fluorobenzyl)-2-(3-(3-methoxyphenylsulfinyl)prop-1-enyl)disulfane], the “Inhibitory activity (%) HDAC 8” value on HDAC 8 stood at 109.2%. Also, the GI50 in experiment [1] stood at 2120 nM; in experiment [2] it was 1750 nM; in experiment [3], 1560 nM; in experiment [4] it was 2020 nM; in experiment [5], 1970 nM; in experiment [6], 2460 nM.
As to `COc1ccc(CSS/C=C/C[S+]([O-])c2ccccc2)cc1` (stereo not shown) [Example 9, (E)-1-(4-methoxybenzyl)-2-(3-(phenylsulfinyl)prop-1-enyl)disulfane], the “Inhibitory activity (%) HDAC 8” value on HDAC 8 amounted to 48.7%. The concentration for 50% growth inhibition (GI50) in experiment [1] came to 1450 nM; in experiment [2] it was 3030 nM; in experiment [3] it was 1430 nM; in experiment [4], 1540 nM; in experiment [5], 2720 nM; in experiment [6], 2940 nM.
In the case of `COc1ccc([S+]([O-])C/C=C\SSCc2ccc(Cl)cc2)cc1` (stereo not shown) [Example 36, (Z)-1-(4-chlorobenzyl)-2-(3-(4-methoxyphenylsulfinyl)prop-1-enyl)disulfane], on HDAC 8, the “Inhibitory activity (%) HDAC 8” value is on record as 98.7%. For the same molecule, the GI50 came to 2190 nM in experiment [1]; 1620 nM in experiment [2]; 2840 nM in experiment [3]; 1780 nM in experiment [4]; 2280 nM in experiment [5]; 2410 nM in experiment [6].
As for `C=CCSS/C=C/C[S+]([O-])c1cccc(OC)c1` (stereo not shown) [Example 15, (E)-1-allyl-2-(3-(3-methoxyphenylsulfinyl)prop-1-enyl)disulfane], the “Inhibitory activity (%) HDAC 8” value at HDAC 8 is 84.6%. The 50% growth inhibitory concentration (GI50) in experiment [1] turned out to be 3420 nM; in experiment [2] it was 2580 nM; in experiment [3], 2950 nM; in experiment [4] it was 4510 nM; in experiment [5], 3020 nM; in experiment [6], 2560 nM.
For `CCCSS/C=C\C[S+]([O-])c1ccc(OC)cc1` (stereo not shown) [Example 30, (Z)-1-(3-(4-methoxyphenylsulfinyl)prop-1-enyl)-2-propyldisulfane], at HDAC 8, the “Inhibitory activity (%) HDAC 8” value stood at 52.9%. On HDAC 8 (recombinant HDAC enzyme, Boc-Lys(acetyl)-AMC, read-out: IC50 HDAC 8), the IC50 turned out to be 290 nM. Besides, the GI50 in experiment [1] was found to be 3580 nM; in experiment [2], 2430 nM; in experiment [3] it was 2360 nM; in experiment [4], 2140 nM; in experiment [5] it was 3020 nM; in experiment [6] it was 3230 nM.
Consider `COc1ccc(CSS/C=C\C[S+]([O-])c2ccccc2)cc1` (stereo not shown) [Example 10, (Z)-1-(4-methoxybenzyl)-2-(3-(phenylsulfinyl)prop-1-enyl)disulfane], for which the “Inhibitory activity (%) HDAC 8” value on HDAC 8 is recorded as 73.8%. The GI50 worked out at 2030 nM in experiment [1]; 2330 nM in experiment [2]; 1660 nM in experiment [3]; 3580 nM in experiment [4]; 4240 nM in experiment [5]; 2720 nM in experiment [6].
With `COc1cccc([S+]([O-])C/C=C/SSCc2ccccc2)c1` (stereo not shown) [Example 19, (E)-1-benzyl-2-(3-(3-methoxyphenylsulfinyl)prop-1-enyl)disulfane], the “Inhibitory activity (%) HDAC 8” value at HDAC 8 is reported as 88.1%. For the same molecule, the concentration for 50% growth inhibition (GI50) stood at 2120 nM in experiment [1]; 2080 nM in experiment [2]; 2340 nM in experiment [3]; 1770 nM in experiment [4]; 1440 nM in experiment [5]; 2500 nM in experiment [6].
Turning to `COc1cccc([S+]([O-])C/C=C/SSCc2ccc(Cl)cc2)c1` (stereo not shown) [Example 23, (E)-1-(4-chlorobenzyl)-2-(3-(3-methoxyphenylsulfinyl)prop-1-enyl)disulfane], on HDAC 8, the “Inhibitory activity (%) HDAC 8” value is given as 72.6%. The GI50 in experiment [1] stood at 4850 nM; in experiment [2], 4370 nM; in experiment [3], 5920 nM; in experiment [4], 3120 nM; in experiment [5], 3760 nM; in experiment [6] it was 5470 nM.
For the molecule `C=CCSS/C=C\C[S+]([O-])c1ccc(OC)cc1` (stereo not shown) [Example 28, (Z)-1-allyl-2-(3-(4-methoxyphenylsulfinyl)prop-1-enyl)disulfane], the “Inhibitory activity (%) HDAC 8” value at HDAC 8 was 73.5%. Further, the GI50 in experiment [1] amounted to 4240 nM; in experiment [2] it was 3940 nM; in experiment [3] it was 3770 nM; in experiment [4], 7280 nM; in experiment [5], 4470 nM; in experiment [6], 5060 nM.
As for `[O-][S+](C/C=C/SSCc1ccccc1)c1ccccc1` (stereo not shown) [Example 5, (E)-1-benzyl-2-(3-(phenylsulfinyl)prop-1-enyl)disulfane], the “Inhibitory activity (%) HDAC 8” value on HDAC 8 turned out to be 88.6%. Also, the GI50 in experiment [1] is 2980 nM; in experiment [2] it was 3970 nM; in experiment [3] it was 3710 nM; in experiment [4], 6270 nM; in experiment [5] it was 3190 nM; in experiment [6], 5750 nM.
For the molecule `[O-][S+](C/C=C/SSCc1ccc(Cl)c(Cl)c1)c1ccccc1` (stereo not shown) [Example 13, (E)-1-(3,4-dichlorobenzyl)-2-(3-(phenylsulfinyl)prop-1-enyl)disulfane], the “Inhibitory activity (%) HDAC 8” value at HDAC 8 came to 76.6%. In addition, the GI50 in experiment [1] is 2920 nM; in experiment [2], 2780 nM; in experiment [3] it was 1770 nM; in experiment [4], 7500 nM; in experiment [5], 2300 nM; in experiment [6], 1970 nM.
On to `CCCSS/C=C/C[S+]([O-])c1cccc(OC)c1` (stereo not shown) [Example 17, (E)-1-(3-(3-methoxyphenylsulfinyl)prop-1-enyl)-2-propyldisulfane], for which the “Inhibitory activity (%) HDAC 8” value on HDAC 8 is recorded as 78.4%. For the same molecule, the GI50 was 1580 nM in experiment [1]; 2170 nM in experiment [2]; 1590 nM in experiment [3]; 1380 nM in experiment [4]; 1990 nM in experiment [5]; 1570 nM in experiment [6].
As to `C=CCSS/C=C/C[S+]([O-])c1ccc(OC)cc1` (stereo not shown) [Example 27, (E)-1-allyl-2-(3-(4-methoxyphenylsulfinyl)prop-1-enyl)disulfane], the “Inhibitory activity (%) HDAC 8” value at HDAC 8 stood at 39.8%. The GI50 came to 3910 nM in experiment [1]; 6610 nM in experiment [2]; 4620 nM in experiment [3]; 5620 nM in experiment [4]; 4380 nM in experiment [5]; 3860 nM in experiment [6].
Consider `COc1ccc([S+]([O-])C/C=C\SSCc2ccc(F)cc2)cc1` (stereo not shown) [Example 34, (Z)-1-(4-fluorobenzyl)-2-(3-(4-methoxyphenylsulfinyl)prop-1-enyl)disulfane], for which the “Inhibitory activity (%) HDAC 8” value at HDAC 8 is 68.1%. Moreover, the GI50 in experiment [1] is 1490 nM; in experiment [2] it was 1450 nM; in experiment [3] it was 2650 nM; in experiment [4], 1090 nM; in experiment [5], 1350 nM; in experiment [6], 1340 nM.
As to `[O-][S+](C/C=C/SSCc1ccc(Cl)cc1)c1ccccc1` (stereo not shown) [Example 11, (E)-1-(4-chlorobenzyl)-2-(3-(phenylsulfinyl)prop-1-enyl)disulfane], the “Inhibitory activity (%) HDAC 8” value at HDAC 8 stood at 74.4%. In addition, the GI50 in experiment [1] turned out to be 2000 nM; in experiment [2] it was 1670 nM; in experiment [3], 1160 nM; in experiment [4], 1560 nM; in experiment [5], 1300 nM; in experiment [6] it was 1220 nM.

The values are drawn from patent US11230525B2, “Organic sulfur compound, method for preparing same, and pharmaceutical composition for preventing or treating cancer or an inflammatory disease, containing same as active ingredient” (SOOKMYUNG WOMENS UNIVERSITY INDUSTRY-ACADEMIC COOPERATION …, priority 2016, dated 2022).
